For one test, the target named is PRMT5/MEP50 complex (Homo sapiens (Human), UniProt O14744). The experiment in a line: PRMT5:MEP50 HotSpot Assay (full-length histone H2A substrate, plus and minus MTA). It counts as biochemical. The following applies: IC50 + 2 μM MTA, in the presence of 2 μM MTA. In a few lines:
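Radiometric filter-binding format using recombinant full-length histone H2A as substrate. After the reaction was stopped, mixtures went onto filter paper and tritiated H2A was quantified by scintillation counting.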

Test [1] deals with HCT116 homozygous MTAP knockout cells. The experiment in a line: Proliferation assay (CellTiter-Glo, 10 days of treatment), HCT116 MTAP knockout. The following applies: read-out: Proliferation HCT116MTAP_KO IC50. It counts as cell-based. The protocol:
(§1) 1. HCT116 MTAP Knockout Model
(§2) HCT116 cells were genetically engineered to knock out the function of both MTAP alleles using a CRISPR/Cas9 system and an sgRNA targeting the MTAP gene. Following Cas9/MTAP sgRNA transduction, clones were screened to confirm that each allele of the MTAP gene had been inactivated (i.e., homozygous MTAP knock out) creating an MTAP-deficient cell.
(§3) Control samples were analyzed in parallel.
Briefly, on Day 0, 250 HCT116 parental or HCT116 homozygous MTAP knockout cell were seeded in 96 well plates in McCoy's 5A supplemented with 10% fetal bovine serum and pen/strep and the cells were incubated overnight at 37° C. plus 5% CO2.
The following day, cells were treated with DMSO vehicle control or a dose response of PRMT5 inhibitors and incubated at 37 C plus 5% CO2 for five days. On Day 6, the cells were trypsinized and split 1:10 into new 96-well plates with fresh medium containing the same concentration of PRMT5 inhibitor and incubated for an additional 5 days at 37° C. plus 5% CO^2.
On Day 11, the viability of the cells was measured using a CTG assay kit (CellTiter-Glo; Promega cat.no G7573) in accordance with the manufacturer's instructions. The IC50 values for each compound after 10 days of treatment were calculated using GraphPad PRISM software.
(In general: ATP-based viability assays read luminescence as a measure of living cells.)

Test [2] has as its system PRMT5-dependent Symmetric Di-methyl Arginine signal in HCT116 homozygous MTAP knockout cells. The experiment in a line: SYM11 In-Cell Western, HCT116 MTAP knockout. It counts as cell-based. The protocol:
as §1, §2, §3
Briefly, on Day 0, 2,000 HCT116 parental or HCT116 homozygous MTAP knockout cells were seeded in 96 well plates in McCoy's 5A supplemented with 10% fetal bovine serum and pen/strep and the cells were incubated overnight at 37° C. plus 5% CO2. The following day, cells were treated with DMSO vehicle control or a dose response of PRMT5 inhibitors, and incubated at 37° C. plus 5% CO^2 for four days.
After 4 days of treatment, the cells were fixed by adding 50 μl of 4% paraformaldehyde solution to each well and the cells were incubated for 20 min at room temperature. The paraformaldehyde solution was removed, 150 μl of ice-cold methanol was added and the plate was placed −20° C. for 10 minutes. The methanol was removed, 150 μl of Odyssey Blocking buffer+0.05% Tween20 was added and the plate was incubated at room temperature with shaking for one hour.
The primary SYM11 antibody solution was removed by aspiration and the wells were washed three consecutive times with phosphate buffered saline containing 0.1% Tween-20 (PBST).
The secondary antibody solution was removed by aspiration and the wells were washed three consecutive times with PB ST.
The SYM11 signal and the DRAQ5 signal were quantified using a Li-Cor Odyssey machine reading at […], respectively. The SYM11/DRAQ5 ratio was used to calculate the inhibition of Symmetric Dimethyl Arginine as percent of DMSO control.

Setting [3] is: Homo sapiens, HCT-116, 96 h, HCT116 homozygous MTAP knockout cells, 4 days of treatment, SYM11/DRAQ5 ratio; read-out: In-cell-Western (SYM11) HCT116 MTAP_KO IC50.
Where [4] appears, read: read-out: In-cell-Western (SYM11) HCT116 MTAP_KO IC50; HCT116 homozygous MTAP knockout cells, 4 days of treatment, SYM11/DRAQ5 ratio.
Setting [5] is: HCT116 homozygous MTAP knockout cells, 4 days of treatment, SYM11/DRAQ5 ratio; read-out: In-cell-Western (SYM11) HCT116 MTAP_KO IC50.

Like-named read-outs stand apart in the source and are kept apart here. Some results are limits rather than exact numbers.

Chain of PRMT5/MEP50 complex (O14744 2-637): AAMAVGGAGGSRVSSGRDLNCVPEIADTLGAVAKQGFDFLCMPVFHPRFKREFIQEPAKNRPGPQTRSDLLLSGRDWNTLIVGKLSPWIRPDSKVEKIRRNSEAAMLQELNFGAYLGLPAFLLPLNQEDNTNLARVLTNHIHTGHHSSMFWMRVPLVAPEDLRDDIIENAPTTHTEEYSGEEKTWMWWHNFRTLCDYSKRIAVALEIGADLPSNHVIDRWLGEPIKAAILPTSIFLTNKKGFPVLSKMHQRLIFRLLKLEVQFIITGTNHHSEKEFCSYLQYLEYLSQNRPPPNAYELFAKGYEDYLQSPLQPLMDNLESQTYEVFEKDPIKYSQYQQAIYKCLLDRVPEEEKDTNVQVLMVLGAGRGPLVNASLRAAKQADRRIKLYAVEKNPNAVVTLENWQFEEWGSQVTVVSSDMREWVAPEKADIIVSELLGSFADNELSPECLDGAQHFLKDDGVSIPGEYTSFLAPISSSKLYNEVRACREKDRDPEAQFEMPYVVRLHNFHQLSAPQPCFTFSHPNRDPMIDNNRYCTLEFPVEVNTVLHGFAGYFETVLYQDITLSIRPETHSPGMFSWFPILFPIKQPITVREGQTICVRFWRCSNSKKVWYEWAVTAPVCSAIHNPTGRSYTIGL
Chain of PRMT5/MEP50 complex (Q9BQA1 2-342 partner): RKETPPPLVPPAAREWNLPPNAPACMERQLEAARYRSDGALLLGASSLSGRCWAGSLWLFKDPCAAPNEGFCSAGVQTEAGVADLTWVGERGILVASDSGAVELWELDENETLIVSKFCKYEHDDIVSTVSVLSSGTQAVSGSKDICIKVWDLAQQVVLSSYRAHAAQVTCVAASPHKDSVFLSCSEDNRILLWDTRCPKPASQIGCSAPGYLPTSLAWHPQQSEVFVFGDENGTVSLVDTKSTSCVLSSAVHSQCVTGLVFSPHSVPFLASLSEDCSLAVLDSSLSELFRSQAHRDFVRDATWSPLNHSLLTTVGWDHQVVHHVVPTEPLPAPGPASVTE

Regarding `Cn1cc(-c2ccc(C#N)c(-c3c(-c4ccc5c(=O)[nH]nc(CN)c5c4)cnn3C)c2)cn1` [Example 12-6, 2-[4-[4-(aminomethyl)-1-oxo-2H-phthalazin-6-yl]-2-methyl-pyrazol-3-yl]-4-(1-methylpyrazol-4-yl)benzonitrile], the IC50 worked out at 730 nM at PRMT5/MEP50 complex; 7470 nM in test [1] (Homo sapiens, HCT-116, 240 h); 380 nM in test [2] (setting [3]).

For the compound `Cn1ncc(-c2ccc3c(=O)[nH]nc(CN)c3c2)c1-c1c(F)c(Cl)cc(OC2CC2)c1C#N` (single isomer, unassigned) [Example 16-8, 2-(4-(4-(aminomethyl)-1-oxo-1,2-dihydrophthalazin-6-yl)-1-methyl-1H-pyrazol-5-yl)-4-chloro-6-cyclopropoxy-3-fluorobenzonitrile], the IC50 in test [1] stood at 24 nM; in test [2] (setting [4]), 0.8 nM.

Consider `Cn1ncc(-c2ccc3c(=O)[nH]nc(CN)c3c2)c1-c1cn2ccccc2c1C#N` [Example 4-240, 2-(4-(4-(aminomethyl)-1-oxo-1,2-dihydrophthalazin-6-yl)-1-methyl-1H-pyrazol-5-yl)indolizine-1-cathonitrile], for which the IC50 was 3560 nM in test [1] (Homo sapiens, HCT-116, 240 h) and > 1000 nM in test [2] (setting [3]).

On to `Cn1ncc(-c2ccc3c(=O)[nH]nc(CN)c3c2)c1-c1c(C(F)F)cc2ccccc2c1C#N` [Example 4-246, 2-(4-(4-(aminomethyl)-1-oxo-1,2-dihydrophthalazin-6-yl)-1-methyl-1H-pyrazol-5-yl)-3-(difluoromethyl)-1-naphthonitrile], for which the IC50 in test [1] (Homo sapiens, HCT-116, 240 h) came to 72 nM; in test [2] (setting [3]) it was 50 nM.

On to `Cc1cnc2ccc(-c3c(-c4ccc5c(=O)[nH]nc(CN)c5c4)cnn3C)c(C#N)c2c1` [Example 12-17, 6-[4-[4-(aminomethyl)-1-oxo-2H-phthalazin-6-yl]-2-methyl-pyrazol-3-yl]-3-methyl-quinoline-5-carbonitrile], for which the IC50 in test [1] (Homo sapiens, HCT-116, 240 h) came out at 85 nM; in test [2] (setting [3]), 10 nM.

With `CCc1cc(-c2cnn(C)c2-c2cccc(OC3CC3)c2C#N)cc2c(CN)n[nH]c(=O)c12` [Example 15-2, 2-(4-(4-(aminomethyl)-8-ethyl-1-oxo-1,2-dihydrophthalazin-6-yl)-1-methyl-1H-pyrazol-5-yl)-6-cyclopropoxybenzonitrile], the IC50 in test [1] (Homo sapiens, HCT-116, 240 h) is 211 nM; in test [2] (setting [3]), 96 nM.

On to `Cn1ncc(-c2ccc3c(=O)[nH]nc(CN)c3c2)c1-c1cn(-c2ccccc2)nc1Cl` [Example 4-213, 4-(aminomethyl)-6-(3′-chloro-2-methyl-1′-phenyl-1′H,2H-[3,4′-bipyrazol]-4-yl)phthalazin-1(2H)-one], for which the IC50 was determined as 1680 nM in test [1] (Homo sapiens, HCT-116, 240 h) and 88 nM in test [2] (setting [3]).

As for `CC(N)c1n[nH]c(=O)c2ccc(-c3cnn(C)c3-c3ccc4ccccc4c3C#N)cc12` (single isomer, unassigned) [Example 9-4, 2-[4-[4-(1-aminoethyl)-1-oxo-2H-phthalazin-6-yl]-2-methyl-pyrazol-3-yl]naphthalene-1-carbonitrile], the IC50 in test [1] is 4180 nM; in test [2] (setting [5]), > 1000 nM.

As for `Cn1ncc(-c2ccc3c(=O)[nH]nc(CN)c3c2)c1-c1ccc2ncsc2c1C#N` [Example 4-237, 6-(4-(4-(aminomethyl)-1-oxo-1,2-dihydrophthalazin-6-yl)-1-methyl-1H-pyrazol-5-yl)benzo[d]thiazole-7-carbonitrile], the IC50 in test [1] (Homo sapiens, HCT-116, 240 h) amounted to 1040 nM; in test [2] (setting [3]), 136 nM.

Turning to `Cn1ncc(-c2ccc3c(=O)[nH]nc(CN)c3c2)c1-c1ccc2nscc2c1C#N` [Example 4-250, 5-(4-(4-(aminomethyl)-1-oxo-1,2-dihydrophthalazin-6-yl)-1-methyl-1H-pyrazol-5-yl)benzo[c]isothiazole-4-carbonitrile], the IC50 in test [1] (Homo sapiens, HCT-116, 240 h) was 757 nM; in test [2] (setting [3]), 51 nM.

As to `Cn1ncc(-c2cc(Cl)c3c(=O)[nH]nc(CN)c3c2)c1-c1cccc(OC2CC2)c1C#N` [Example 10-14, 2-(4-(4-(aminomethyl)-8-chloro-1-oxo-1,2-dihydrophthalazin-6-yl)-1-methyl-1H-pyrazol-5-yl)-6-cyclopropoxybenzonitrile], the IC50 in test [1] (Homo sapiens, HCT-116, 240 h) is 88 nM; in test [2] (setting [3]), 75 nM.

Consider `Cn1ncc(-c2cc(Cl)c3c(=O)[nH]nc(CN)c3c2)c1-c1c(F)cc2ccccc2c1C#N` [Example 10-17, 2-(4-(4-(aminomethyl)-8-chloro-1-oxo-1,2-dihydrophthalazin-6-yl)-1-methyl-1H-pyrazol-5-yl)-3-fluoro-1-naphthonitrile], for which the IC50 in test [1] (Homo sapiens, HCT-116, 240 h) was 21 nM; in test [2] (setting [3]), 21 nM.

Consider `Cn1ncc(-c2ccc3c(=O)[nH]nc(CN)c3c2)c1-c1cccn2cncc12` [Example 4-239, 4-(aminomethyl)-6-(5-(imidazo[1,5-a]pyridin-8-yl)-1-methyl-1H-pyrazol-4-yl)phthalazin-1(2H)-one], for which the IC50 is > 10000 nM in test [1] (Homo sapiens, HCT-116, 240 h) and > 1000 nM in test [2] (setting [3]).

On to `Cn1ncc(-c2ccc3c(=O)[nH]nc(CN)c3c2)c1-c1c(F)c(Cl)cc(OC2CC2)c1C#N` (single isomer, unassigned) [Example 16-7, 2-(4-(4-(aminomethyl)-1-oxo-1,2-dihydrophthalazin-6-yl)-1-methyl-1H-pyrazol-5-yl)-4-chloro-6-cyclopropoxy-3-fluorobenzonitrile], for which the results for the IC50 in test [1] and in test [2] (setting [4]) were 4000 nM and 1000 nM, respectively.

Consider `Cc1c(F)c(-c2c(-c3ccc4c(=O)[nH]nc(CN)c4c3)cnn2C)c(C#N)c2ccccc12` [Example 4-245, 2-(4-(4-(aminomethyl)-1-oxo-1,2-dihydrophthalazin-6-yl)-1-methyl-1H-pyrazol-5-yl)-3-fluoro-4-methyl-1-naphthonitrile], for which the IC50 came out at 8 nM in test [1] (Homo sapiens, HCT-116, 240 h) and 7 nM in test [2] (setting [3]).

For `Cn1ncc(-c2ccc3c(=O)[nH]nc(CN)c3c2)c1-c1c(F)ccc(OC2CC2)c1C#N` [Example 4-251, 2-(4-(4-(aminomethyl)-1-oxo-1,2-dihydrophthalazin-6-yl)-1-methyl-1H-pyrazol-5-yl)-6-cyclopropoxy-3-fluorobenzonitrile], the IC50 amounted to 49 nM in test [1] (Homo sapiens, HCT-116, 240 h) and 8 nM in test [2] (setting [3]).

On to `Cn1ncc(-c2ccc3c(=O)[nH]nc(CN)c3c2)c1-c1ccc2c(cnn2C)c1C#N` [Example 4-249, 5-(4-(4-(aminomethyl)-1-oxo-1,2-dihydrophthalazin-6-yl)-1-methyl-1H-pyrazol-5-yl)-1-methyl-1H-indazole-4-carbonitrile], for which the IC50 in test [1] (Homo sapiens, HCT-116, 240 h) was 3510 nM; in test [2] (setting [3]) it was > 1000 nM.

For the compound `CCOc1cc(-c2cnn(C)c2-c2ccc3ccccc3c2C#N)cc2c(CN)n[nH]c(=O)c12` [Example 13-2, 2-[4-[4-(aminomethyl)-8-ethoxy-1-oxo-2H-phthalazin-6-yl]-2-methyl-pyrazol-3-yl]naphthalene-1-carbonitrile], the IC50 in test [1] (Homo sapiens, HCT-116, 240 h) is 149 nM; in test [2] (setting [3]) it was 64 nM.

For `CCOc1cc(-c2cnn(C)c2-c2c(F)cc3ccccc3c2C#N)cc2c(CN)n[nH]c(=O)c12` (single isomer, unassigned) [Example 16-4, 2-[4-[4-(aminomethyl)-8-ethoxy-1-oxo-2H-phthalazin-6-yl]-2-methyl-pyrazol-3-yl]-3-fluoro-naphthalene-1-carbonitrile], the IC50 was determined as 15 nM in test [1] and 12 nM in test [2] (setting [5]).

On to `Cc1c(-c2c(-c3ccc4c(=O)[nH]nc(CN)c4c3)cnn2C)ccc2ccccc12` [Example 12-12, 4-(aminomethyl)-6-[1-methyl-5-(1-methyl-2-naphthyl)pyrazol-4-yl]-2H-phthalazin-1-one], for which the IC50 in test [1] (Homo sapiens, HCT-116, 240 h) was found to be 240 nM; in test [2] (setting [3]) it was 26 nM.

For the origin of these results see patent US11479551B2, “MTA-cooperative PRMT5 inhibitors” (Mirati Therapeutics, Inc., priority 2019, dated 2022).
